The values that follow come from paper PMC8448162, “Single- and Multiple-Ascending-Dose Study of the Safety, Tolerability, and Pharmacokinetics of the Polymyxin Derivative SPR206” (Antimicrobial Agents and Chemotherapy, 2021).

In one data set the test system is healthy subjects. In words: Safety and tolerability (adverse events, laboratory tests, ECG), first-in-human SAD/MAD study, 1-h i.v. infusion. As to conditions: in vivo.
The conditions of data set [1]: rat, in vivo; cited from earlier work.
The next data set concerns kidney. The settings on record: mouse, in vivo; cited from earlier work.
A further data set is described as follows: clinical. The settings on record: human, in vivo; for CL renal: CLR (renal clearance). The method, then:
Maximum plasma concentration (Cmax), area under the concentration-time curve from time zero to last measurable time point (AUC0–t), area under the concentration-time curve from time zero to infinity (AUC0–inf), area under the concentration-time curve from time zero to tau (AUC0–tau), time to maximum concentration (Tmax), terminal elimination rate constant (kel), terminal half-life (t1/2), terminal clearance (CL), and volume of distribution (Vz) were determined. In addition, area under the concentration-time curve from 0 to 24 h after the start of infusion (AUC0–24) was determined for the SAD phase, and area under the concentration-time curve from time zero to 8 h from start of infusion (AUC0–8) on day 1 and 0 to 48 h (AUC0–48) following the last dose on day 14 as well as predose trough concentrations were determined for the MAD phase. Urine parameters included cumulative amount of drug excreted in successive urine intervals (Ae), renal clearance (CLR), fraction of cumulative fraction of dose recovered in urine as unchanged drug (Fe), and percentage fraction of cumulative fraction of dose recovered in urine as unchanged drug (Fe%). PK parameters were determined by noncompartmental analysis using Phoenix WinNonlin 8.1.
For the SAD phase, blood samples were obtained predose and at 30, 60, 75, 90, 105, 120, and 150 min and at 3, 5, 8, 12, and 24 h following the start of infusion. Urine was collected for PK assessment predose and over the intervals of 0 to 4 h, 4 to 8 h, 8 to 12 h, and 12 to 24 h after the start of infusion.
(§1) In the MAD phase, plasma samples for PK analysis were collected (i) on day 1—pre-dose and at 30, 60, 75, 90, 105, 120, and 150 min and at 3, 5, and 8 h following start of the first infusion; (ii) prior to the morning dose (within 10 min) on days 2, 3, 5, 7, 9, 11, and 13; and (iii) predose and 30, 75, 90, 105, 120, and 150 min and 3, 5, 8, and 12 h (day 14), 24, 36 (day 15), and 48 h (day 16) following start of the last infusion. Urine was collected for PK assessment on day 1 predose, over the intervals 0 to 4 h and 4 to 8 h after start of first infusion, and on days 14 and 15 over the intervals 0 to 4 h, 4 to 8 h, 8 to 12 h, and 12 to 24 h after start of day 14 infusion. Total 24-h urine for calculating CrCl was collected from the morning of day −1 to predose on day 1 and on days 15 and 16 over the interval from 24 to 48 h after the start of the day 14 infusion. Urine creatinine concentrations were measured using 24-h collections prior to the first dose on day 1 and over the 24 to 48 h following start of infusion of the last dose (day 14). Plasma and urine samples for SPR206 levels were analyzed using a validated liquid chromatography-tandem mass spectrometry (LC-MS/MS) method. The assay range for SPR206 was 50 to 5,000 ng/ml in plasma and 100 to 50,000 ng/ml in urine. In plasma, assay precision was 1.3 to 7.7%, accuracy was 1.2 to 9.5%, stability was 194 h at 4°C, and reproducibility was 98.4%. In urine, assay precision was 1.7 to 7.5%, accuracy was −4.8 to 7.3%, stability was 147 h at 4°C, and reproducibility was 97.8%.

Data set [2] is classed as in vitro ADME. The method, then: as §1, with “In plasma, assay precision was 1.3 to 7.7%, accuracy was 1.2 to 9.5%, stability was 194 h at 4°C, and reproducibility was 98.4%. In urine, assay precision was 1.7 to 7.5%, accuracy was −4.8 to 7.3%, stability was 147 h at 4°C, and reproducibility was 97.8%.” left out

Structures are written as SMILES. Positions of bridges follow the written chain, without caps; N, C: chain ends. Non-standard residues stand in square brackets, D forms with d. Residues, ends and D or L forms follow the SMILES beside them. *: point of attachment. X1 = NC[C@@H](CC(=O)*)c1cccc(Cl)c1; Dab = NCC[C@H](N)C(=O)O; Dap = NC[C@H](N)C(=O)O

Turning to `CC(C)C[C@@H]1NC(=O)[C@@H](Cc2ccccc2)NC(=O)[C@H](CCN)NC(=O)[C@@H](NC(=O)[C@H](CN)NC(=O)[C@@H](NC(=O)C[C@H](CN)c2cccc(Cl)c2)[C@@H](C)O)CCNC(=O)[C@H]([C@@H](C)O)NC(=O)[C@H](CCN)NC(=O)[C@H](CCN)NC1=O` [SPR206] (X1-T[Dap][Dab][Dab][dF]L[Dab][Dab]T; lactam 3-C (inferred)), in the data set with healthy subjects, the “subjects with oral hypoesthesia” value came out at 6 subjects. Moreover, in the data set on healthy subjects, the “subjects with oral paresthesia” value was 5 subjects. For the same molecule, the “exposure in the kidney compared with PMB” value in data set [1] was “lower exposure in the kidney of rats”. Moreover, the “histopathological changes in the kidney” value in the data set with kidney is recorded as “no histopathological changes in the kidney”. For the same molecule, the CL renal is 0.567 mL/min in “clinical” (10 mg); 4 mL/min in “clinical” (25 mg); 13.7 mL/min in the data set “clinical” (50 mg); 25.8 mL/min in the data set “clinical” (100 mg); 35.5 mL/min in “clinical” (150 mg); 29.5 mL/min in “clinical” (200 mg). Besides, the CL renal was 35.5 mL/min in the data set “clinical” (300 mg) and 32.8 mL/min in the data set “clinical” (400 mg). The “CLR (renal clearance)” value in the data set “clinical” (150 mg) worked out at 1.55 ± 0.17 L/h. In addition, the “Fe (%)” value in the data set “clinical” (iv, 25 mg) is reported as 5.32 ± 4.38%. Further, the “Fe (fraction of dose recovered in urine as unchanged drug)” value came to 0.05 ± 0.04 in the data set “clinical” (iv, 25 mg); 0.18 ± 0.02 in the data set “clinical” (iv, 50 mg); 0.27 ± 0.05 in “clinical” (iv, 100 mg). In addition, the dose excreted in “clinical” (iv, 200 mg, Fe (%)) was 35.7 ± 3.85%; in the data set “clinical” (iv, 200 mg, Fe (fraction of dose recovered in urine as unchanged drug)) it was 36 ± 4%; in the data set “clinical” (iv, 300 mg, Fe (fraction of dose recovered in urine as unchanged drug)) it was 49 ± 8%; in “clinical” (iv, 400 mg, Fe (%)), 53.4 ± 6.21%; in “clinical” (iv, 400 mg, Fe (fraction of dose recovered in urine as unchanged drug)), 53 ± 6%. In data set [2], this molecule came in with a stability in urine of 147 h. The same molecule returned a stability in plasma in data set [2] (plasma) of 194 h.
